Experimental data: patent US10538487B2, “Sulfonylureas and related compounds and use of same” (priority 2015, dated 2020)
“And” between values parts separate entries of the source, which are not always exact repeats. Equal values may be shown once. Read-outs that look alike come from different tables or passages of the source.

Experiment: Single dose pharmacokinetic study in mice (iv 4 mg/Kg, po 20 mg/Kg), plasma concentration post-dosing
Format: in vivo, mouse
Settings: mouse
Procedure: This is advantageous leading to comparatively lower doses or less frequent administration. The procedure followed was: Male C57BL/6 mice were used at 7-9 weeks age with 3 animals per group. Mice were dosed with test compound using single intravenous bolus or oral gavage. Blood samples were taken via submandibular or saphenous vein for analysis of plasma concentrations of compound by LC-MS/MS at the following timepoints: IV (3 mice): 0.083, 0.25, 0.5, 1, 2, 4, 8 and 24 hours post dosing, PO (3 mice): 0.25, 0.5, 1, 2, 4, 8 and 24 hours post dosing. LC-MS/MS method for the quantitative determination of test compound in corresponding biological matrix was developed. […] The results are shown graphically in FIGS. 1A to 1C (MCC950) and FIGS. 2A to 2C (MCC7840).

[1] = IV 4 mg/Kg, individual mice M1-M3, 4 mg/kg
[2] = PO 20 mg/Kg, individual mice M4-M6, 20 mg/kg

Work on `CC(C)(O)c1coc(S(=O)(=O)NC(=O)Nc2c3c(cc4c2CCC4)CCC3)c1` [MCC_000950_016, N-((1,2,3,5,6,7-hexahydro-s-indacen-4-yl)carbamoyl)-4-(2-hydroxypropan-2-yl)furan-2-sulfonamide, reference compound] yielded an AUC0-inf (male, C57BL/6, mouse, plasma, po, 20 mg/kg, PO 20 mg/Kg, mean of 3 mice, read-out: AUC0-inf, Mean PO) of 126 µg·h/mL, an AUC(0-t) (male, C57BL/6, mouse, plasma, po, 20 mg/kg, PO 20 mg/Kg, mean of 3 mice, read-out: AUC0-last, Mean PO) of 125 µg·h/mL and a Cmax (male, C57BL/6, mouse, plasma, po, 20 mg/kg, PO 20 mg/Kg, mean of 3 mice, read-out: Cmax, Mean PO) of 35000 ng/mL. The MRT inf (male, C57BL/6, mouse, plasma, po, 20 mg/kg, PO 20 mg/Kg, mean of 3 mice, read-out: MRT0-inf, Mean PO) was 3.63 h, the MRT last (male, C57BL/6, mouse, plasma, po, 20 mg/kg, PO 20 mg/Kg, mean of 3 mice, read-out: MRT0-last, Mean PO) was 3.6 h and the half-life (male, C57BL/6, mouse, plasma, po, 20 mg/kg, PO 20 mg/Kg, mean of 3 mice, read-out: T1/2, Mean PO (converted)) was 2.39 h. The Tmax (male, C57BL/6, mouse, plasma, po, 20 mg/kg, PO 20 mg/Kg, mean of 3 mice, read-out: Tmax, Mean PO) was 0.333 h, the “Plasma concentration, IV Time 5 min” value (IV 4 mg/Kg, 5 min post dosing, individual mice M1-M3, 4 mg/kg) was 17200 ng/mL and 17700 ng/mL and the “Plasma concentration, IV Time 0.250 h” value (IV 4 mg/Kg, 0.250 h post dosing, individual mice M1-M3, 4 mg/kg) was 10200 ng/mL and 12700 ng/mL. The “Plasma concentration, IV Time 0.500 h” value (IV 4 mg/Kg, 0.500 h post dosing, individual mice M1-M3, 4 mg/kg) was 9420 ng/mL and 10500 ng/mL, the “Plasma concentration, IV Time 1.00 h” value (IV 4 mg/Kg, 1.00 h post dosing, individual mice M1-M3, 4 mg/kg) was 7730 ng/mL and 8230 ng/mL and the “Plasma concentration, IV Time 2.00 h” value (IV 4 mg/Kg, 2.00 h post dosing, individual mice M1-M3, 4 mg/kg) was 6000 ng/mL and 5010 ng/mL. For the same molecule, the “Plasma concentration, IV Time 4.00 h” value (IV 4 mg/Kg, 4.00 h post dosing, individual mice M1-M3, 4 mg/kg) was 2390 ng/mL and 2130 ng/mL, the “Plasma concentration, IV Time 8.00 h” value (IV 4 mg/Kg, 8.00 h post dosing, individual mice M1-M3, 4 mg/kg) was 843 ng/mL and 480 ng/mL and the “Plasma concentration, IV Time 24.0 h” value (IV 4 mg/Kg, 24.0 h post dosing, individual mice M1-M3, 4 mg/kg) was 2.33 ng/mL. The Tlast (IV 4 mg/Kg, individual mice M1-M3) was 24.0 h, the AUC0-inf [1] was 33.496 µg·h/mL and 30.758 µg·h/mL and the AUC0-last [1] was 33.489 µg·h/mL and 30.751 µg·h/mL. The AUCExtra [1] was 0.0226% and 0.0198% and 0.0224%, the AUMCExtra [1] was 0.219% and 0.187% and 0.251% and the C0 [1] was 22332 ng/mL and 20894 ng/mL. For the same molecule, the Cl [1] was 1.99 mL/min/kg and 2.17 mL/min/kg, the MRT0-inf [1] was 2.84 h and 2.41 h and the MRT0-last [1] was 2.83 h and 2.40 h. The T1/2 [1] was 1.97 h and 2.05 h, the Vdss [1] was 0.339 L/kg and 0.313 L/kg and the “AUCExtra, Mean IV” value (IV 4 mg/Kg, mean of 3 mice) was 0.0216%. The “AUMCExtra, Mean IV” value (IV 4 mg/Kg, mean of 3 mice) was 0.219%, the “C0, Mean IV” value (IV 4 mg/Kg, mean of 3 mice) was 21974 ng/mL and the “Tlast, Mean IV” value (IV 4 mg/Kg, mean of 3 mice) was 24.0 h. The bioavailability (PO 20 mg/Kg vs IV 4 mg/Kg, Mean PO) was 71.0%, the “Plasma concentration, PO Time 0.250 h” value (PO 20 mg/Kg, 0.250 h post dosing, individual mice M4-M6, 20 mg/kg) was 21900 ng/mL and 29000 ng/mL and 48900 ng/mL and the “Plasma concentration, PO Time 0.500 h” value (PO 20 mg/Kg, 0.500 h post dosing, individual mice M4-M6, 20 mg/kg) was 34100 ng/mL and 35800 ng/mL. For the same molecule, the “Plasma concentration, PO Time 1.00 h” value (PO 20 mg/Kg, 1.00 h post dosing, individual mice M4-M6, 20 mg/kg) was 33700 ng/mL and 37000 ng/mL, the “Plasma concentration, PO Time 2.00 h” value (PO 20 mg/Kg, 2.00 h post dosing, individual mice M4-M6, 20 mg/kg) was 22500 ng/mL and 26200 ng/mL and the “Plasma concentration, PO Time 4.00 h” value (PO 20 mg/Kg, 4.00 h post dosing, individual mice M4-M6, 20 mg/kg) was 13000 ng/mL and 10500 ng/mL. The “Plasma concentration, PO Time 8.00 h” value (PO 20 mg/Kg, 8.00 h post dosing, individual mice M4-M6, 20 mg/kg) was 2360 ng/mL and 4670 ng/mL, the “Plasma concentration, PO Time 24.0 h” value (PO 20 mg/Kg, 24.0 h post dosing, individual mice M4-M6, 20 mg/kg) was 60.7 ng/mL and 17.4 ng/mL and 39.3 ng/mL and the Tlast (PO 20 mg/Kg, individual mice M4-M6) was 24.0 h. The AUC0-inf [2] was 123.452 µg·h/mL and 144.868 µg·h/mL, the AUC0-last [2] was 123.399 µg·h/mL and 144.734 µg·h/mL and the AUCExtra [2] was 0.216% and 0.0429% and 0.0929%. For the same molecule, the AUMCExtra [2] was 1.40% and 0.376% and 0.730%, the Cmax [2] was 21900 ng/mL and 34100 ng/mL and 48900 ng/mL and the MRT0-last [2] was 3.07 h and 3.47 h. The T1/2 [2] was 2.11 h and 2.37 h, the Tmax [2] was 0.500 h and the “AUCExtra, Mean PO” value (PO 20 mg/Kg, mean of 3 mice) was 0.117%. The “AUMCExtra, Mean PO” value (PO 20 mg/Kg, mean of 3 mice) was 0.835% and the “Tlast, Mean PO” value (PO 20 mg/Kg, mean of 3 mice) was 24.0 h.
